Here are results for one molecule from patent US10273290B2, “Hydrocarbon double-stapled stabilized HIV-1 GP41 heptad repeat domain peptides” (DANA-FARBER CANCER INSTITUTE, INC., priority 2009, dated 2019).

A short description of data set [1]: Circular dichroism, α-helical content. Format: physicochemical. The conditions noted are these: comparative CD spectra, 20-mer residues 626-645. Put shortly:
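Far-UV CD spectra recorded at 20° C, 190-260 nm, 0.1 cm path, 10 accumulations. Percent α-helicity from mean residue ellipticity at 222 nm: 100×[θ]222/max[θ]222, with max[θ]222=−40,000×[1−(2.5/number of residues)]. Secondary-structure fractions also estimated by CDNN curve-fitting.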
For orientation: CD spectra are sensitive to the conformation of chiral molecules.

Another data set has as its system HIV syncytia formation. Nature of the data set: HIV syncytial formation assay. Format: cell-based, HIV-1. Here is the method: Functional assays can be used to evaluate the activity of the antibodies produced. In culture, multinucleated giant cells or “syncytia” form as a result of direct cell-cell fusion between HIV-1-infected and uninfected CD4-positive cells. In the syncytia formation assay, an indicator cell line expressing the CD4 receptor, and a fusogenic cell line that lacks the CD4 receptor but contains HIV-1 proteins on the surface, fuse to generate 70-100 multinucleated giant cells in culture within 48 h. Syncytia are then counted using an inverted microscope. The ability of structured gp41 peptides or antibodies targeted thereto to inhibit syncytia formation in a dose-responsive fashion is used as a functional measure of fusion inhibition, for which IC50s can be determined and compared with peptides T20 and T649, or established neutralization antibodies (Brenner, T. J., et al. The Lancet, 1991. 337(8748): p. 1001-1005; Madani, N., et al., Journal of Virology, 2007. 81(2): p. 532-538).
The truncated Stabilized Alpha Helix (SAH)-gp41 compound, SAH-gp41(626-645)(A), was successfully synthesized in high yield.

A further data set relates to HIV-1 HXBc2. Nature of the data set: HIV infectivity assay, HXBc2 strain. The data set is classed as cell-based. The conditions noted are these: compared to T20. The text has this: Also the direct inhibitory activity of modified polypeptides and the antibodies targeted thereto can be quantified based upon their capacity to directly block HIV infection of CD4-positive and CCR5-expressing canine thymus cells. Recombinant HIV-1 viruses (eg. HXBc2, YU2, and additional strains available through the NIH AIDS Research and Reference Reagent Program) expressing firefly luciferase and containing the indicated envelope glycoproteins can be used to infect Cf2Th-CD4-CCR5/CXCR4 cells in the presence of serially diluted modified HIV-1 gp41 polypeptides or antibodies targeted thereto After 48 hours, the cells are lysed and luciferase activity is quantified (Si, Z. H., M. Cayabyab, and J. Sodroski, Journal of Virology, 2001. 75(9): p. 4208-4218 Si, Z. H., et al., PNAS, 2004. 101(14): p. 5036-5041). The identical experiment is performed with the amphotropic murine leukemia virus (AMLV), to monitor for any nonspecific effects of the modified polypeptides or antibodies. Similar control assays may be performed with unmodified or non-HIV polypeptides of the invention or control antibodies and are known in the art. […]

Structures are written as SMILES. Bridge positions count the residues as written; N and C are the ends. Square brackets hold non-standard residues; d marks the D form. Peptide text beside a SMILES is read from it. S5 = C=CCCC[C@](C)(N)C(=O)O; Nle = CCCC[C@H](N)C(=O)O

The molecule `CCCC[C@H](NC(C)=O)C(=O)N[C@H](C(=O)N[C@@H](Cc1c[nH]c2ccccc12)C(=O)N[C@@]1(C)CCCC=CCCC[C@@](C)(C(=O)N[C@@H](CCC(=O)O)C(=O)N[C@H](C(=O)N[C@@H](CC(N)=O)C(=O)N[C@@H](CC(N)=O)C(=O)N[C@@H](Cc2ccc(O)cc2)C(=O)N[C@H](C(=O)N[C@@H](CO)C(=O)N[C@@H](CC(C)C)C(=O)N[C@H](C(=O)N[C@@H](Cc2c[nH]cn2)C(=O)N[C@@H](CO)C(=O)N[C@@H](CC(C)C)C(N)=O)[C@@H](C)CC)[C@@H](C)O)[C@@H](C)CC)NC(=O)[C@H](CC(=O)O)NC(=O)[C@H](Cc2c[nH]c3ccccc23)NC(=O)[C@H](CCC(=O)O)NC1=O)[C@@H](C)O` [SAH-gp41(626-645)(A)] (Ac-[Nle]TW[S5]EWD[S5]EINNYTSLIHSL-NH2; staple 4-8; N-terminus assumed) registered a α-helical content in data set [1] of 48%. Besides, the “inhibitory activity in syncytial formation assay, in words” value in the data set on HIV syncytia formation is on record as “markedly enhanced inhibitory activity”. Also, the “anti-HXBc2 activity, in words” value in the data set on HIV-1 HXBc2 is recorded as “significant anti-HXBc2 activity”.
